{"source": "patent US20080226719A1", "about": "“Combination of Rosiglitazone and Donepezil for Improvement of Cognitive Function” (priority 2005, published 2008)", "key": {"Alzheimer's patients [1]": {"tested_on": "Alzheimer's patients", "test": "Disability Assessment for Dementia (DAD), Example 2 study", "type": "in vivo, human", "conditions": "week 24", "method": "(§1) Patients received either placebo or one of three dosage levels of extended release rosiglitazone provided once daily (2 mg, 4 mg and 8 mg tablets as described in Example 1). Patients were examined using the cognitive Alzheimer's Disease Assessment Scale (ADAS-cog; for further information see Rosen W G et al. Am. J. Psychiatry. 1984 141:1356-1364) and the Clinician's Interview-Based Impression of Change with caregiver information (CIBIC+; for further information see Knopman D S et al. Neurology 1994 44: 2315-2321); and secondary assessments were performed using: the Disability Assessment for Dementia (DAD, for further information see Gelinas L et al. Am J Occup Ther 1999 53: 471-81) and the Neuropsychiatric Inventory test (NPI, for further information see Cummings et al (1994) Neurology 44, 2308-2314) at the start of the study (baseline) and during the course of the study (after 8, 16 and 24 weeks of treatment).\nSimilar results were identified using the Disability Assessment for Dementia (DAD) test (Gelinas L et al. Am J Occup Ther 1999 53: 471-81). A prospectively defined test for interaction between APOE4 carriage status and DAD scores at week 24 was significant (P=0.006)."}, "Alzheimer's patients [2]": {"tested_on": "Alzheimer's patients", "test": "CIBIC+ in patients with mild to moderate AD, 24 week placebo-controlled study (Example 2)", "type": "in vivo, human", "conditions": "24 weeks; for CIBIC+ LSMean (SE) / CIBIC+ Treatment Difference (95% confidence limits) Rosi − Placebo: ITT population, LOCF", "method": "Analysis for the full intent to treat (ITT) population was performed on 511 subjects who were randomly allocated into one of four specific treatment regimes. Genotyping analysis was performed on 63% (323/511) of the ITT population.\nPatient population included Caucasian males and females between 50-85 years of age who had been diagnosed with mild to moderate AD, were not receiving any medications which could adversely prejudice the study (e.g. PPAR-gamma agonists or conventional AD medicaments) or had any other potentially prejudicial ailments (e.g. diabetes or major psychiatric disorders).\nas §1\nAPOE genotype was determined using the TaqMan PCR-based method of McLeod et al 2001 infra.\nAll statistics reflect last observed assessment carried forward (LOCF) measurements.\nHigher CIBIC+ scores indicate a greater level of decline with scores below 4 denoting clinical improvement and scores above 4 denoting clinical decline."}, "[3]": {"conditions": "Table 13, PGx ITT population, 0 APOE4 copies, 2 mg"}, "[4]": {"conditions": "Table 13, PGx ITT population, 0 APOE4 copies, 4 mg"}, "[5]": {"conditions": "Table 13, PGx ITT population, 0 APOE4 copies, 8 mg"}, "[6]": {"conditions": "Table 13, PGx ITT population, 1 APOE4 copy, 2 mg"}, "[7]": {"conditions": "Table 13, PGx ITT population, 1 APOE4 copy, 4 mg"}, "[8]": {"conditions": "Table 13, PGx ITT population, 1 APOE4 copy, 8 mg"}, "[9]": {"conditions": "Table 13, PGx ITT population, 2 APOE4 copies, 2 mg"}, "[10]": {"conditions": "Table 13, PGx ITT population, 2 APOE4 copies, 4 mg"}, "[11]": {"conditions": "Table 13, PGx ITT population, 2 APOE4 copies, 8 mg"}}, "data": [{"smiles": "CN(CCOc1ccc(CC2SC(=O)NC2=O)cc1)c1ccccn1", "note": "(stereo not drawn) [Rosi, 5-[4-[2-(N-methyl-N-(2-pyridyl)amino)ethoxy]benzyl]thiazolidine-2,4-dione]", "values": [{"measurement": "DAD scores, pattern of results", "setting": "Alzheimer's patients [1]; APOE4+ subjects", "result": "demonstrated no improvement"}, {"measurement": "DAD scores, pattern of results", "setting": "Alzheimer's patients [1]; APOE4− subjects", "result": "demonstrated improvement on DAD"}, {"measurement": "CIBIC+ LSMean (SE)", "setting": "Alzheimer's patients [2]; 2 mg", "result": "3.8 (0.10)"}, {"measurement": "CIBIC+ Treatment Difference (95% confidence limits) Rosi − Placebo", "setting": "Alzheimer's patients [2]; 2 mg", "result": "−0.16 (−0.44, 0.11)"}, {"measurement": "CIBIC+ LSMean (SE)", "setting": "Alzheimer's patients [2]; 4 mg", "result": "3.8 (0.10)"}, {"measurement": "CIBIC+ Treatment Difference (95% confidence limits) Rosi − Placebo", "setting": "Alzheimer's patients [2]; 4 mg", "result": "−0.16 (−0.43, 0.11)"}, {"measurement": "CIBIC+ LSMean (SE)", "setting": "Alzheimer's patients [2]; 8 mg", "result": "3.8 (0.10)"}, {"measurement": "CIBIC+ Treatment Difference (95% confidence limits) Rosi − Placebo", "setting": "Alzheimer's patients [2]; 8 mg", "result": "−0.22 (−0.49, 0.05)"}, {"measurement": "CIBIC+ Treatment Difference (90% confidence limits) Rosi − Placebo", "setting": "Alzheimer's patients [2]; [3]", "result": "−0.49 (−0.89, −0.08)"}, {"measurement": "model adjusted CIBIC+ LSMean (SE)", "setting": "Alzheimer's patients [2]; [3]", "result": "3.47 (0.18)"}, {"measurement": "CIBIC+ Treatment Difference (90% confidence limits) Rosi − Placebo", "setting": "Alzheimer's patients [2]; [4]", "result": "−0.19 (−0.60, 0.22)"}, {"measurement": "model adjusted CIBIC+ LSMean (SE)", "setting": "Alzheimer's patients [2]; [4]", "result": "3.76 (0.18)"}, {"measurement": "CIBIC+ Treatment Difference (90% confidence limits) Rosi − Placebo", "setting": "Alzheimer's patients [2]; [5]", "result": "−0.19 (−0.61, 0.22)"}, {"measurement": "model adjusted CIBIC+ LSMean (SE)", "setting": "Alzheimer's patients [2]; [5]", "result": "3.76 (0.18)"}, {"measurement": "CIBIC+ Treatment Difference (90% confidence limits) Rosi − Placebo", "setting": "Alzheimer's patients [2]; [6]", "result": "0.59 (0.08, 1.11)"}, {"measurement": "model adjusted CIBIC+ LSMean (SE)", "setting": "Alzheimer's patients [2]; [6]", "result": "4.47 (0.23)"}, {"measurement": "CIBIC+ Treatment Difference (90% confidence limits) Rosi − Placebo", "setting": "Alzheimer's patients [2]; [7]", "result": "0.23 (−0.28, 0.74)"}, {"measurement": "model adjusted CIBIC+ LSMean (SE)", "setting": "Alzheimer's patients [2]; [7]", "result": "4.11 (0.23)"}, {"measurement": "CIBIC+ Treatment Difference (90% confidence limits) Rosi − Placebo", "setting": "Alzheimer's patients [2]; [8]", "result": "−0.20 (−0.73, 0.34)"}, {"measurement": "model adjusted CIBIC+ LSMean (SE)", "setting": "Alzheimer's patients [2]; [8]", "result": "3.68 (0.25)"}, {"measurement": "CIBIC+ Treatment Difference (90% confidence limits) Rosi − Placebo", "setting": "Alzheimer's patients [2]; [9]", "result": "−0.92 (−2.20, 0.37)"}, {"measurement": "model adjusted CIBIC+ LSMean (SE)", "setting": "Alzheimer's patients [2]; [9]", "result": "3.42 (0.58)"}, {"measurement": "CIBIC+ Treatment Difference (90% confidence limits) Rosi − Placebo", "setting": "Alzheimer's patients [2]; [10]", "result": "−0.39 (−1.55, 0.77)"}, {"measurement": "model adjusted CIBIC+ LSMean (SE)", "setting": "Alzheimer's patients [2]; [10]", "result": "3.95 (0.47)"}, {"measurement": "CIBIC+ Treatment Difference (90% confidence limits) Rosi − Placebo", "setting": "Alzheimer's patients [2]; [11]", "result": "−0.07 (−1.08, 0.95)"}, {"measurement": "model adjusted CIBIC+ LSMean (SE)", "setting": "Alzheimer's patients [2]; [11]", "result": "4.27 (0.34)"}, {"measurement": "model adjusted CIBIC+ LSMean (SE)", "setting": "Alzheimer's patients [2]; Table 13A updated analysis with additional subjects, 0 APOE4 copies, 2 mg", "result": "3.51 (0.17)"}, {"measurement": "model adjusted CIBIC+ LSMean (SE)", "setting": "Alzheimer's patients [2]; Table 13A updated analysis with additional subjects, 0 APOE4 copies, 4 mg", "result": "3.75 (0.17)"}, {"measurement": "model adjusted CIBIC+ LSMean (SE)", "setting": "Alzheimer's patients [2]; Table 13A updated analysis with additional subjects, 0 APOE4 copies, 8 mg", "result": "3.75 (0.18)"}, {"measurement": "model adjusted CIBIC+ LSMean (SE)", "setting": "Alzheimer's patients [2]; Table 13A updated analysis with additional subjects, 1 APOE4 copy, 2 mg", "result": "4.32 (0.21)"}, {"measurement": "model adjusted CIBIC+ LSMean (SE)", "setting": "Alzheimer's patients [2]; Table 13A updated analysis with additional subjects, 1 APOE4 copy, 4 mg", "result": "3.97 (0.22)"}, {"measurement": "model adjusted CIBIC+ LSMean (SE)", "setting": "Alzheimer's patients [2]; Table 13A updated analysis with additional subjects, 1 APOE4 copy, 8 mg", "result": "3.70 (0.24)"}, {"measurement": "model adjusted CIBIC+ LSMean (SE)", "setting": "Alzheimer's patients [2]; Table 13A updated analysis with additional subjects, 2 APOE4 copies, 2 mg", "result": "3.46 (0.57)"}, {"measurement": "model adjusted CIBIC+ LSMean (SE)", "setting": "Alzheimer's patients [2]; Table 13A updated analysis with additional subjects, 2 APOE4 copies, 4 mg", "result": "3.93 (0.47)"}, {"measurement": "model adjusted CIBIC+ LSMean (SE)", "setting": "Alzheimer's patients [2]; Table 13A updated analysis with additional subjects, 2 APOE4 copies, 8 mg", "result": "4.29 (0.33)"}, {"measurement": "CIBIC+ Treatment Difference (90% confidence limits) Rosi − Placebo", "setting": "Alzheimer's patients [2]; Table 13A updated analysis, 0 APOE4 copies, 2 mg", "result": "−0.46 (−0.85, −0.07)"}, {"measurement": "CIBIC+ Treatment Difference (90% confidence limits) Rosi − Placebo", "setting": "Alzheimer's patients [2]; Table 13A updated analysis, 0 APOE4 copies, 4 mg", "result": "−0.22 (−0.62, 0.18)"}, {"measurement": "CIBIC+ Treatment Difference (90% confidence limits) Rosi − Placebo", "setting": "Alzheimer's patients [2]; Table 13A updated analysis, 0 APOE4 copies, 8 mg", "result": "−0.22 (−0.62, 0.19)"}, {"measurement": "CIBIC+ Treatment Difference (90% confidence limits) Rosi − Placebo", "setting": "Alzheimer's patients [2]; Table 13A updated analysis, 1 APOE4 copy, 2 mg", "result": "0.39 (−0.09, 0.87)"}]}]}
